Test results from ChEMBL document CHEMBL1136387, “Unique spirocyclopiperazinium salt. Part 2: synthesis and structure-activity relationship of dispirocyclopiperazinium salts as analgesics” (Bioorg Med Chem Lett, 2003).

What was measured:
Mus musculus [1] = assay: (§1) In vivo analgesic activity evaluated by using acetic acid writhing test in mice administered subcutaneously at a dose of 2 mg/kg; assay type: functional; settings: sc, route subcutaneous
Mus musculus [2] = assay: as §1; assay type: functional; settings: sc, route subcutaneous; remark: listed apart in the source
[3] = Toxicity in mice administered subcutaneously; settings: mouse, in vivo, sc
Mus musculus [4] = assay: In vivo analgesic activity evaluated by using acetic acid writhing test in mice administered subcutaneously at a dose of 0.05 mg/kg; assay type: functional; settings: sc, route subcutaneous
Mus musculus [5] = assay: (§2) In vivo analgesic activity evaluated by using acetic acid writhing test in mice administered subcutaneously at a dose of 5 mg/kg; assay type: functional; settings: sc, route subcutaneous
Mus musculus [6] = assay: In vivo analgesic activity evaluated by using acetic acid writhing test in mice administered subcutaneously at a dose of 20 mg/kg; assay type: functional; settings: sc, route subcutaneous
Mus musculus [7] = assay: (§3) In vivo analgesic activity evaluated by using acetic acid writhing test in mice administered subcutaneously at a dose of 10 mg/kg; assay type: functional; settings: sc, route subcutaneous
Mus musculus [8] = assay: In vivo analgesic activity evaluated by using acetic acid writhing test in mice administered subcutaneously at a dose of […]; assay type: functional; settings: sc, dose 2.5 mg/kg, route subcutaneous
Mus musculus [9] = assay: (§4) In vivo analgesic activity evaluated by using acetic acid writhing test in mice administered subcutaneously at a dose of 0.02 mg/kg; assay type: functional; settings: sc, route subcutaneous
Mus musculus [10] = assay: as §4; assay type: functional; settings: sc, route subcutaneous; remark: listed apart in the source
Mus musculus [11] = organism: Mus musculus; assay: […]; assay type: functional; settings: sc, route subcutaneous
Mus musculus [12] = assay: as §2; assay type: functional; settings: sc, route subcutaneous; remark: listed apart in the source
Mus musculus [13] = assay: as §3; assay type: functional; settings: sc, route subcutaneous; remark: listed apart in the source
Mus musculus [14] = assay: (§5) In vivo analgesic activity evaluated by using acetic acid writhing test in mice administered subcutaneously at a dose of 0.2 mg/kg; assay type: functional; settings: sc, route subcutaneous
Mus musculus [15] = assay: as §5; assay type: functional; settings: sc, route subcutaneous; remark: listed apart in the source

O=C(CC(=O)N1CC[N+]2(CCCC2)CC1)N1CC[N+]2(CCCC2)CC1.[Br-].[Br-]
inhibition in vivo at 2 mg/kg (Mus musculus [1]): 0%
inhibition in vivo at 2 mg/kg (Mus musculus [2]): 0%
Death dose [3]: 40 mg/kg

C[N+]1(C)CCN(C(=O)CCCCC(=O)N2CC[N+](C)(C)CC2)CC1
inhibition in vivo at 0.05 mg/kg (Mus musculus [4]): 60.1%

CCOC(CN1CC[N+]2(CCCC2)CC1)CN1CC[N+]2(CCCC2)CC1
inhibition in vivo at 5 mg/kg (Mus musculus [5]): 34%
inhibition in vivo at 20 mg/kg (Mus musculus [6]): 90%
inhibition in vivo at 10 mg/kg (Mus musculus [7]): 46%

CCCCCCOC(CN1CC[N+]2(CCCC2)CC1)CN1CC[N+]2(CCCC2)CC1
inhibition in vivo at […] (Mus musculus [8]): 49%
inhibition in vivo at 5 mg/kg (Mus musculus [5]): 61%
inhibition in vivo at 20 mg/kg (Mus musculus [6]): 100%
inhibition in vivo at 10 mg/kg (Mus musculus [7]): 91%

O=C(CCCCCC(=O)N1CC[N+]2(CCCC2)CC1)N1CC[N+]2(CCCC2)CC1.[Br-].[Br-]
inhibition in vivo at 0.02 mg/kg (Mus musculus [9]): 0%
inhibition in vivo at 0.02 mg/kg (Mus musculus [10]): 0%
Death dose [3]: 0.2 mg/kg

O=C(CCCC(=O)N1CC[N+]2(CCCC2)CC1)N1CC[N+]2(CCCC2)CC1.[Br-].[Br-]
inhibition in vivo at 2 mg/kg (Mus musculus [1]): 67.4%
inhibition in vivo at 2 mg/kg (Mus musculus [2]): 0%
Death dose [3]: 20 mg/kg

O=C(CCC(=O)N1CC[N+]2(CCCC2)CC1)N1CC[N+]2(CCCC2)CC1.[Br-].[Br-]
inhibition in vivo at 2 mg/kg (Mus musculus [1]): 47.7%
inhibition in vivo at 2 mg/kg (Mus musculus [2]): 0%
Death dose [3]: 20 mg/kg

O=C(CCCCC(=O)N1CCNCC1)N1CCNCC1
inhibition in vivo at 5 mg/kg (Mus musculus [5]): 34.5%

CCCCCCCCCCCCCCCCCCOC(CN1CC[N+]2(CCCC2)CC1)CN1CC[N+]2(CCCC2)CC1
inhibition in vivo at 20 mg/kg (Mus musculus [11]): 24%

C(CCCN1CC[N+]2(CCCC2)CC1)CCN1CC[N+]2(CCCC2)CC1
inhibition in vivo at 2 mg/kg (Mus musculus [1]): 72.4%
inhibition in vivo at 2 mg/kg (Mus musculus [2]): 56.6%

C(CCCCN1CC[N+]2(CCCC2)CC1)CCCN1CC[N+]2(CCCC2)CC1
inhibition in vivo at 2 mg/kg (Mus musculus [1]): 98.6%
inhibition in vivo at 2 mg/kg (Mus musculus [2]): 0%

O=C(CCCCCCC(=O)N1CC[N+]2(CCCC2)CC1)N1CC[N+]2(CCCC2)CC1.[Br-].[Br-]
inhibition in vivo at 0.02 mg/kg (Mus musculus [9]): 27.5%
inhibition in vivo at 0.02 mg/kg (Mus musculus [10]): 0%
Death dose [3]: 0.2 mg/kg

C(CCCCCN1CC[N+]2(CCCC2)CC1)CCCCN1CC[N+]2(CCCC2)CC1
inhibition in vivo at 2 mg/kg (Mus musculus [1]): 84.6%
inhibition in vivo at 2 mg/kg (Mus musculus [2]): 0%

C(CN1CC[N+]2(CCCC2)CC1)CN1CC[N+]2(CCCC2)CC1
inhibition in vivo at 5 mg/kg (Mus musculus [5]): 45.5%
inhibition in vivo at 5 mg/kg (Mus musculus [12]): 0%
inhibition in vivo at 10 mg/kg (Mus musculus [7]): 96%
inhibition in vivo at 10 mg/kg (Mus musculus [13]): 4.7%

CCCCCCCCCCCCOC(CN1CC[N+]2(CCCC2)CC1)CN1CC[N+]2(CCCC2)CC1
inhibition in vivo at 20 mg/kg (Mus musculus [6]): 18%

CN1CCN(C(=O)CCCCC(=O)N2CCN(C)CC2)CC1
inhibition in vivo at 10 mg/kg (Mus musculus [7]): 10.9%

O=C(CCCCC(=O)N1CC[N+]2(CCCC2)CC1)N1CC[N+]2(CCCC2)CC1.[Br-].[Br-]
inhibition in vivo at 0.2 mg/kg (Mus musculus [14]): 8.1%
inhibition in vivo at 0.2 mg/kg (Mus musculus [15]): 70.4%
Death dose [3]: 2 mg/kg
